Assay [1] concerns Campylobacter coli ATCC 33559. The settings on record: ATCC 33559, 24 h.
In another assay the test system is C. coli ATCC33559. The note with it: ATCC33559, 24 h, 200 μg/mL.
Assay [2] relates to C. perfringens MLG7814. It is filed as cell-based, Clostridium perfringens.
The subject of assay [3] is C. perfringens MLG0418. It counts as cell-based, Clostridium perfringens.
The test system of assay [4] is C. perfringens MLG4201. It counts as cell-based, Clostridium perfringens.
In assay [5] the test system is C. perfringens MLG2919. It is filed as cell-based, Clostridium perfringens.
The test system of assay [6] is C. perfringens MLG6907. It counts as cell-based, Clostridium perfringens.
Assay [7] deals with C. perfringens MLG3111. It is filed as cell-based, Clostridium perfringens.
Assay [8] relates to C. perfringens MLG0618. It is filed as cell-based, Clostridium perfringens.
Assay [9] deals with C. perfringens MLG5719. It counts as cell-based, Clostridium perfringens.
Assay [10] deals with C. perfringens MLG0712. It is filed as cell-based, Clostridium perfringens.
The test system of assay [11] is C. perfringens MLG1819. It is filed as cell-based, Clostridium perfringens.
For assay [12], the system named is C. perfringens MLG3406. It counts as cell-based, Clostridium perfringens.
For assay [13], the system named is C. perfringens MLG3406. It counts as cell-based, Clostridium perfringens. This is another data set of the same source.
Assay [14] deals with C. perfringens MLG5806. It is filed as cell-based, Clostridium perfringens.
Assay [15] concerns C. perfringens MLG2203. It is filed as cell-based, Clostridium perfringens.
Assay [16] deals with C. perfringens MLG0712. It counts as cell-based, Clostridium perfringens. This is another data set of the same source.
Assay [17] relates to C. perfringens MLG7009. It counts as cell-based, Clostridium perfringens.
The subject of assay [18] is C. perfringens MLG6907. It is filed as cell-based, Clostridium perfringens. This is another data set of the same source.
Assay [19] has as its system C. perfringens MLG4206. It is filed as cell-based, Clostridium perfringens.
The test system of assay [20] is C. perfringens MLG4201. It is filed as cell-based, Clostridium perfringens. The source holds these as a separate data set.
The subject of assay [21] is C. perfringens MLG2314. It counts as cell-based, Clostridium perfringens.
Assay [22] deals with C. perfringens MLG2203. It is filed as cell-based, Clostridium perfringens. The source holds these as a separate data set.
Assay [23] has as its system C. perfringens MLG3111. It counts as cell-based, Clostridium perfringens. This is another data set of the same source.
Assay [24] relates to C. perfringens MLG7814. It counts as cell-based, Clostridium perfringens. The source holds these as a separate data set.
Assay [25] concerns C. perfringens MLG7309. It is filed as cell-based, Clostridium perfringens.
In assay [26] the test system is C. perfringens MLG7009. It is filed as cell-based, Clostridium perfringens. This is another data set of the same source.
In assay [27] the test system is C. perfringens MLG7309. It counts as cell-based, Clostridium perfringens. This is another data set of the same source.
Assay [28] relates to C. perfringens MLG1619. It is filed as cell-based, Clostridium perfringens.
Assay [29] concerns C. perfringens MLG4206. It counts as cell-based, Clostridium perfringens. The source holds these as a separate data set.
Assay [30] relates to C. perfringens MLG2919. It is filed as cell-based, Clostridium perfringens. The source holds these as a separate data set.
Assay [31] deals with C. perfringens MLG1619. It is filed as cell-based, Clostridium perfringens. This is another data set of the same source.
Assay [32] relates to C. perfringens MLG7307. It counts as cell-based, Clostridium perfringens.
Assay [33] deals with C. perfringens MLG1108. It counts as cell-based, Clostridium perfringens.
Assay [34] deals with C. perfringens MLG1108. It counts as cell-based, Clostridium perfringens. This is another data set of the same source.
Assay [35] concerns C. perfringens MLG7307. It counts as cell-based, Clostridium perfringens. This is another data set of the same source.
The subject of assay [36] is C. perfringens MLG2314. It counts as cell-based, Clostridium perfringens. The source holds these as a separate data set.
The subject of assay [37] is C. perfringens MLG5806. It is filed as cell-based, Clostridium perfringens. This is another data set of the same source.
Assay [38] has as its system C. perfringens MLG1819. It counts as cell-based, Clostridium perfringens. The source holds these as a separate data set.
Assay [39] has as its system C. perfringens MLG5719. It counts as cell-based, Clostridium perfringens. The source holds these as a separate data set.
Assay [40] has as its system C. perfringens MLG0618. It counts as cell-based, Clostridium perfringens. The source holds these as a separate data set.
The test system of assay [41] is C. perfringens MLG0418. It counts as cell-based, Clostridium perfringens. This is another data set of the same source.

No end group written: not given here.

Usually MIC stands for the lowest concentration found to suppress growth.

Take “MGAIAKLVAKFGWPIVKKYYKQIMQFIGEGWAINKIIEWIKKHI [Enterocin L50A]”: in assay [1], the minimal inhibitory concentration (MIC) was determined as 25 µg/mL. In the assay on C. coli ATCC33559, the Inhibition halos came out at 10 mm.
In the case of “Nisin (ITSISLCTPGCKTGALMGCNMKTATCHCSIHVSK; thioether (positions not given here); not fully specified (some residues, bridges); UniProt P13068 24-57, looked up)”, the Inhibition halos amounted to 23 mm in the assay with C. perfringens MLG7814 [2]; 23 mm in the assay on C. perfringens MLG0418 [3]; 18 mm in the assay on C. perfringens MLG4201 [4]; 21 mm in the assay with C. perfringens MLG2919 [5]; 23 mm with C. perfringens MLG6907 [6]; 17 mm in the assay on C. perfringens MLG0712 [10]. For the same substance, the Inhibition halos in the assay with C. perfringens MLG1819 [11] is 19 mm; with C. perfringens MLG3406 [13] it was 19 mm; in the assay on C. perfringens MLG5806 [14], 19 mm; with C. perfringens MLG2203 [15], 24 mm; in the assay on C. perfringens MLG2314 [21] it was 20 mm; in the assay with C. perfringens MLG3111 [23] it was 27 mm. Also, the Inhibition halos with C. perfringens MLG7009 [26] is 20 mm; with C. perfringens MLG7309 [27] it was 17 mm; in the assay with C. perfringens MLG1619 [28] it was 20 mm; in the assay with C. perfringens MLG4206 [29], 25 mm; with C. perfringens MLG1108 [33], 16 mm; in the assay with C. perfringens MLG7307 [35] it was 20 mm. The Inhibition halos in the assay with C. perfringens MLG5719 [39] is 19 mm; with C. perfringens MLG0618 [40], 14 mm. Besides, the minimal inhibitory concentration (MIC) is 0.39 µg/mL against C. perfringens MLG3111 [7]; 0.39 µg/mL in the assay on C. perfringens MLG0618 [8]; 1.56 µg/mL against C. perfringens MLG5719 [9]; 3.12 µg/mL against C. perfringens MLG3406 [12]; 0.39 µg/mL with C. perfringens MLG0712 [16]; 1.56 µg/mL with C. perfringens MLG7009 [17]. In addition, the MIC against C. perfringens MLG6907 [18] is 1.56 µg/mL; with C. perfringens MLG4206 [19], 1.56 µg/mL; in the assay on C. perfringens MLG4201 [20] it was 0.78 µg/mL; in the assay on C. perfringens MLG2203 [22], less than 0.09 µg/mL; with C. perfringens MLG7814 [24], 3.12 µg/mL; against C. perfringens MLG7309 [25], 0.78 µg/mL. The MIC in the assay on C. perfringens MLG2919 [30] was 1.56 µg/mL; with C. perfringens MLG1619 [31], 0.19 µg/mL; against C. perfringens MLG7307 [32], 0.78 µg/mL; in the assay on C. perfringens MLG1108 [34], 0.78 µg/mL; with C. perfringens MLG2314 [36], 1.56 µg/mL; in the assay on C. perfringens MLG5806 [37] it was 1.56 µg/mL. The minimum inhibitory concentration (MIC) in the assay on C. perfringens MLG1819 [38] amounted to 0.39 µg/mL; in the assay with C. perfringens MLG0418 [41], 1.56 µg/mL.

Source of the values: publication PMC10855908 (International Journal of Molecular Sciences, 2024).
